# Biological target: T1, α4β1 integrin (Homo sapiens, UniProt P05556+P13612)
# T1 construct: a T-cell line, Jurkat, known to express the α4β1 integrin; host or cells: Jurkat T-cell line
# Assay: Jurkat-Endothelial Cell Adhesion Assay (Jurkat EC)
# Format: cell-based
# Conditions: Jurkat cell adhesion to IL-1 stimulated endothelial cell monolayers
# Method: The following assay established the activity of the present compounds in inhibiting β1-mediated cell adhesion in a representative in vitro system. This assay measures the adhesive interactions of a T-cell line, Jurkat, known to express the α4β1 integrin, to endothelial monolayers in the presence of test compounds. The test compounds were added in increasing concentrations to T-cells and then the T-cell compound mixture was added to IL-1 stimulated endothelial cell monolayers. The plates were incubated, washed and the percentage of attached cells was quantitated.
# Human umbilical vein endothelial cells were purchased from Clonetics (San Diego, CA.) at passage number 2. The cells were grown on 0.5% porcine skin gelatin pre-coated flasks (Sigma, St. Louis MO.) in EGM-UV media (Clonetics, San Diego, CA) supplemented with 10% fetal bovine serum. Cells are refed every 2-3 days reaching confluence by day 4 to 6. […] The endothelial cells are not used following passage 6.
# The T-cell line Jurkat was obtained from American Type Tissue Culture Collection (Rockville, MD) and the cells were cultured in RPMI containing 10 % fetal calf serum. The cells were washed twice in Hank's Balanced Salt Solution (HBSS) and resuspended in Dulbecco's Minimal Eagle's Media (DMEM) containing 2.5 mg/ml Human Serum Albumin (HSA). Jurkat cells (1x10^6 cells/ml) were stained with 10 ng/ml BCECF-AM (Molecular Probes, Eugene, OR)) in HBSS without phenol red. The cells were loaded with BCECF for 60 minutes in the dark at 37°C, washed 2 times, and resuspended in DMEM-HSA solution.
# Confluent endothelial monolayers, grown in 96-well tissue culture plates, were stimulated for 4 hr. at 37 °C with 0.1 ng/ml (∼50 U/ml) recombinant IL-1 (Amgen, Thousand Oaks, CA). Following this incubation, the monolayers were washed twice with HBSS and 0.1 ml of DMEM-HSA solution was added. Jurkat cells (5 x 10^5 cells) were combined with the appropriate concentration of the test compound and 0.1 ml of the Jurkat cell-compound mixture was added to the endothelial cell monolayers. Generally, 100, 20, 5 and 1.25 µM compound concentrations were tested. […] Following this incubation, the monolayers were washed twice with PBS containing 1 mM calcium chloride and 1 mM magnesium chloride' and the plates were read using a Millipore Cytofluor 2300 (Marlboro, MA.). Fluorescence in each well was measured as Arbitrary Fluorescence Units and percent adhesion in the absence of compound was adjusted to 100% and the % adhesion in the presence of compound was calculated. Monolayers were also fixed in 3% paraformaldehyde and evaluated microscopically to verify the adhesion. This procedure is a modification of a previously published method (Cardarelli et al., J. Biol. Chem. 269:18668-18673 (1994)).
# T1 sequence (P13612 34-1032): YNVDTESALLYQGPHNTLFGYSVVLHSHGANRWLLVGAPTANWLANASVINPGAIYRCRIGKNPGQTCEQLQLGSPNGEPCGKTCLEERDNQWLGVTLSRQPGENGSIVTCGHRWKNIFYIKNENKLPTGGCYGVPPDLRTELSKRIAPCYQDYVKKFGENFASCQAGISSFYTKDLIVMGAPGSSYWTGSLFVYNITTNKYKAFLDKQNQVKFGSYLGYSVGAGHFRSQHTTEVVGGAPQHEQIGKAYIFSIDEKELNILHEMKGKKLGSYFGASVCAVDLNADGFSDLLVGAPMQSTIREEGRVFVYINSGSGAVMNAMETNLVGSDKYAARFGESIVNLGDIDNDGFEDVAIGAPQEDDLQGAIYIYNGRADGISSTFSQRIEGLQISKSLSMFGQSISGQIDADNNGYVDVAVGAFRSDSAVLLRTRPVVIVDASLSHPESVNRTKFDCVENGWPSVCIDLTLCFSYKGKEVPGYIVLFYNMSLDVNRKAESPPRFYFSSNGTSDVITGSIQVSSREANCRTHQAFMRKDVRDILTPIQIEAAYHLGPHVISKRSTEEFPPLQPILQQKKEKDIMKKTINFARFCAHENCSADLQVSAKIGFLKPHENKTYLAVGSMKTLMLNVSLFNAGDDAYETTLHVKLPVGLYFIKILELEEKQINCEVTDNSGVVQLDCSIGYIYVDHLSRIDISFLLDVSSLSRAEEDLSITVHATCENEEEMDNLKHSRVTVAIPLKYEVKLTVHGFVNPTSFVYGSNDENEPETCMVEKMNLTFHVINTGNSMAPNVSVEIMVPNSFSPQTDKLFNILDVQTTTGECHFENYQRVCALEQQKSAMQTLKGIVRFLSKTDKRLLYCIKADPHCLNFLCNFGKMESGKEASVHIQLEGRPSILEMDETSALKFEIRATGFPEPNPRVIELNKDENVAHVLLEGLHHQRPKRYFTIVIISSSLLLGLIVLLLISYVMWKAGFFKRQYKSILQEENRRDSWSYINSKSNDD
# T1 sequence (P05556 21-798): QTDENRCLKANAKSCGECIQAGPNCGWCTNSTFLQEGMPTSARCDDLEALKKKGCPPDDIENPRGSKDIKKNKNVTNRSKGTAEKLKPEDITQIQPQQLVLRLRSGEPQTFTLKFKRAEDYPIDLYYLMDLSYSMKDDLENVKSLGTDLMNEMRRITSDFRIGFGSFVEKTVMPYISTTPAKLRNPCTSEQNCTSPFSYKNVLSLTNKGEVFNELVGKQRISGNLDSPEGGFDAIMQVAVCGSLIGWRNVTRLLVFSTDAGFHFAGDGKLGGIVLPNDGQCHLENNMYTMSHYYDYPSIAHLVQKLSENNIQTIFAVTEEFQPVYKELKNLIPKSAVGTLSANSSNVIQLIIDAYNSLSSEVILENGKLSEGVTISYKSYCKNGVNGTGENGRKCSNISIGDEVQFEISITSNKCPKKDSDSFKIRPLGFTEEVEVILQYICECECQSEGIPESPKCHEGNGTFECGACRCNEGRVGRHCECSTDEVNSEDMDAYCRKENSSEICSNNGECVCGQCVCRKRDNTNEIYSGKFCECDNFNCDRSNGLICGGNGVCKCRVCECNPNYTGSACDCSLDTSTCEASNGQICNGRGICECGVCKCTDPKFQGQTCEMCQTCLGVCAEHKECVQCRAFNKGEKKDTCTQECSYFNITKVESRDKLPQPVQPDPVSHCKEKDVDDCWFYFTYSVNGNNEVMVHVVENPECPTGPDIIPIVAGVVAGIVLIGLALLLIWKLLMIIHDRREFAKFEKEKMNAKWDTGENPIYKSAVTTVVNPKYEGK
row,Structure (SMILES),IC50 [nM]
1,"COC(=O)[C@H](Cc1ccc(NC(=O)c2c(Cl)cccc2Cl)cc1)NC(=O)c1cccc2c1CCC/C2=C/C(=O)O [Example 130, N-[[(5Z)-5-Carboxymethylene-7,8-dihydro-1(6H)-naphthyl]carbonyl]-4-[(2,6-dichlorobenzoyl)amino]-L-phenylalanine methyl ester]",800 to 5000
2,CC(Oc1cccc(/C=C/C(=O)O)c1)C(=O)N[C@@H](Cc1ccc(NC(=O)c2c(Cl)cccc2Cl)cc1)C(=O)O (stereo partly drawn) [Example 21],5000 to 10000
3,O=C(Nc1ccc(CC(NC(=O)C2CCCCC2C(=O)O)C(=O)O)cc1)c1c(Cl)cccc1Cl (stereo not drawn) [Example 8],800 to 5000
4,O=C(Nc1ccc(CC(NC(=O)C2CCCCC2NC(=O)C2NC(C(=O)O)CS2)C(=O)O)cc1)c1c(Cl)cccc1Cl (stereo not drawn) [Example 84],≤ 800
5,"CC(=O)[C@H]1C[C@H](C(=O)N[C@@H](Cc2ccc(NC(=O)c3c(Cl)cccc3Cl)cc2)C(=O)O)C1(C)C [Example 96, (1S-trans)-N-[(3-Acetyl-2,2-dimethylcyclobutyl)carbonyl]-4-[(2,6-dichlorobenzoyl)amino]-L-phenylalanine]",≤ 800
6,"CC(O)[C@@H]1C[C@H](CC(=O)N[C@@H](Cc2ccc(NC(=O)c3c(Cl)cccc3Cl)cc2)C(=O)O)C1(C)C (stereo partly drawn) [Example 92, [1R-(1α,3α)]-4-[(2,6-Dichlorobenzoyl)amino]-N-[[3-(1-hydroxyethyl)-2,2-dimethylcyclobutyl]acetyl]-L-phenylalanine]",800 to 5000
7,O=C(N[C@@H](Cc1ccc(NC(=O)c2c(Cl)cccc2Cl)cc1)C(=O)O)c1cccc(NC(=O)c2ccccc2C(=O)O)c1 [Example 41],5000 to 10000
8,"CC1=C(C(=O)O)C(C)(C)CC/C1=C\C(=O)N[C@@H](Cc1ccc(NC(=O)c2c(Cl)cccc2Cl)cc1)C(=O)O [Example 121, N-[(1E)-3-Carboxy-2,4,4-trimethyl-2-cyclohexen-1-ylideneacetyl]-4-[(2,6-dichlorobenzoyl)amino]-L-phenylalanine]",800 to 5000
9,"O=C(Nc1ccc(C[C@H](NC(=O)N2CCC(C(=O)O)CC2)C(=O)O)cc1)c1c(Cl)cccc1Cl [Example 113, 1-[[[(1S)-1-carboxy-2-[4-[(2,6-dichlorobenzoyl)amino]phenyl]ethyl]amino]carbonyl]-4-piperidinecarboxylic acid]",800 to 5000
10,CC(Oc1cccc(C(=O)O)c1)C(=O)N[C@@H](Cc1ccc(NC(=O)c2c(Cl)cccc2Cl)cc1)C(=O)O (stereo partly drawn) [Example 14],800 to 5000
11,CC(C)(Oc1cccc(/C=C/C(=O)O)c1)C(=O)N[C@@H](Cc1ccc(NC(=O)c2c(Cl)cccc2Cl)cc1)C(=O)O [Example 22],800 to 5000
12,CC(C)(Oc1cccc(C(=O)O)c1)C(=O)N[C@@H](Cc1ccc(NC(=O)c2c(Cl)cccc2Cl)cc1)C(=O)O [Example 15],800 to 5000
13,O=C(O)c1cccc(OC(C(=O)N[C@@H](Cc2ccc(NC(=O)c3c(Cl)cccc3Cl)cc2)C(=O)O)c2ccccc2)c1 (stereo partly drawn) [Example 16],800 to 5000
14,"O=C(/C=C1/CCCc2c(C(=O)O)cccc21)N[C@@H](Cc1ccc(NC(=O)c2c(Cl)cccc2Cl)cc1)C(=O)O [Example 137, N-[(1Z)-5-Carboxy-3,4-dihydro-1(2H)-naphthalenylideneacetyl]-4-[(2,6-dichlorobenzoyl)amino] -L-phenylalanine]",5000 to 10000
15,"CC1(C)[C@@H](C(=O)N[C@@H](Cc2ccc(NC(=O)c3ccc(Cl)nc3Cl)cc2)C(=O)O)C[C@H]1C(=O)O [Example 108, (1S-cis)-N-[(3-Carboxy-2,2-dimethylcyclobutyl)carbonyl] -4-[[(2,6-dichloro-3-pyridinyl)carbonyl]amino]-L-phenylalanine]",800 to 5000
16,CC(=O)c1cccc(OC(C)C(=O)N[C@@H](Cc2ccc(NC(=O)c3c(Cl)cccc3Cl)cc2)C(=O)O)c1 (stereo partly drawn) [Example 18],800 to 5000
17,"CC1(C)[C@@H](C(=O)N[C@@H](Cc2ccc(OCc3c(Cl)cccc3Cl)cn2)C(=O)O)C[C@H]1C(=O)O (relative stereo) [Example 109, [1S-[1α(R*),3α]]-α-[[(3-Carboxy-2,2-dimethylcyclobutyl)carbonyl]amino]-3-[(2,6-dichlorophenyl)methoxy]-6-pyridinepropanoic acid]",800 to 5000
18,CC(Oc1ccccc1C(=O)O)C(=O)N[C@@H](Cc1ccc(NC(=O)c2c(Cl)cccc2Cl)cc1)C(=O)O (stereo partly drawn) [Example 28],800 to 5000
19,O=C(Nc1ccc(C[C@H](NC(=O)N2CCCC[C@H]2C(=O)O)C(=O)O)cc1)c1c(Cl)cccc1Cl [Example 11],5000 to 10000
20,O=C(N[C@@H](Cc1ccc(NC(=O)c2c(Cl)cccc2Cl)cc1)C(=O)O)c1ccc(O)c(CN2CCOCC2)c1 [Example 4],800 to 5000
21,"CC1(C)[C@H](CC(=O)N[C@@H](Cc2ccc(NC(=O)c3c(Cl)cccc3Cl)cc2)C(=O)O)C[C@@H]1C(=O)O [Example 90, (1S-cis)-N-[(3-Carboxy-2,2-dimethylcyclobutyl)acetyl]-4-[(2,6-dichlorobenzoyl)amino]-L-phenylalanine]",5000 to 10000
22,CC(Sc1ccccc1C(=O)O)C(=O)N[C@@H](Cc1ccc(NC(=O)c2c(Cl)cccc2Cl)cc1)C(=O)O (stereo partly drawn) [Example 24],5000 to 10000

# Biological target: T2, α4β1 (Homo sapiens, UniProt P05556+P13612)
# T2 construct: 100 µl of Jurkat cells (2.5 x 10^6 cells/ml) in DMEM plus BSA; host or cells: Jurkat T-cell line
# Assay: Jurkat-CS-1 assay
# Format: cell-based
# Conditions: Jurkat cell adhesion to immobilized CS-1 derived peptide
# Method: The CS-1 derived peptide, CLHPGEILDVPST, and the scrambled control peptide, CLHGPIELVSDPT, were synthesized on a Beckman 990 synthesizer using t-Boc methodology. The peptides were immobilized onto microtiter plates using the heterobifunctional crosslinker 3-(2-pyridyldithio)propionic acid N-hydroxysuccinimide ester (SPDP) as reported by Pierschbacher et al., Proc. Natl. Acad. USA, 80:1224-1227 (1983). Microtiter plates were coated with 20 µg/ml HSA for 2 hr. at room temperature, washed once with PBS and derivatized with 10 µg/ml SPDP for 1 hr. After washing, 100 µl of a 100 µg/ml cysteine containing peptide solution which had been recently dissolved was added to the wells and allowed to crosslink to the plates overnight at 4 °C. Unbound peptide was removed from plates by washing with PBS. To block non-reacted sites, the plates are coated with 100 µl of a 2.5 mg/ml BSA solution in PBS for 1 hr. at 37 °C. 100 µl of Jurkat cells (2.5 x 10^6 cells/ml) in DMEM plus BSA (2.5 mg/ml) was mixed with an appropriate concentration of the compound to be tested and the mixture was added to peptide coated dishes and incubated for 1 hr. at 37 °C. Generally 100, 20, 5 and 1.25 µM concentrations of the compound were tested.
# Following this incubation the plates were washed once with PBS and the attached cells were fixed with 3% paraformaldehyde in PBS and stained with 0.5% toluidine blue in 3.7% formaldehyde. The cells were stained overnight at room temperature and the optical density at 590 nm of toluidine blue stained cells was determined using a vertical pathway spectrophotometer to quantitate attachment (VMAX Kinetic Microplate Reader, Molecular Devices, Menlo Park, CA). This procedure is a modification of a previously published method (Cardarelli et al, J. Biol. Chem., 269:18668-18673 (1994) and Cardarelli et al, Proc. Natl. Acad. Sci. USA, 83:2647-2651 (1986)).
# T2 sequence (P13612 34-1032): as the sequence (P13612 34-1032) above
# T2 sequence (P05556 21-798): as the sequence (P05556 21-798) above
row,Structure (SMILES),IC50 [nM]
1,"COC(=O)[C@H](Cc1ccc(NC(=O)c2c(Cl)cccc2Cl)cc1)NC(=O)c1cccc2c1CCC/C2=C/C(=O)O [Example 130, N-[[(5Z)-5-Carboxymethylene-7,8-dihydro-1(6H)-naphthyl]carbonyl]-4-[(2,6-dichlorobenzoyl)amino]-L-phenylalanine methyl ester]",500 to 1000
2,O=C(Nc1ccc(CC(NC(=O)C2CCCCC2NC(=O)C2NC(C(=O)O)CS2)C(=O)O)cc1)c1c(Cl)cccc1Cl (stereo not drawn) [Example 84],80 to 500
3,"CC(=O)[C@H]1C[C@H](C(=O)N[C@@H](Cc2ccc(NC(=O)c3c(Cl)cccc3Cl)cc2)C(=O)O)C1(C)C [Example 96, (1S-trans)-N-[(3-Acetyl-2,2-dimethylcyclobutyl)carbonyl]-4-[(2,6-dichlorobenzoyl)amino]-L-phenylalanine]",≤ 80
4,"O=C(O)CNC(=O)Nc1cccc(C(=O)N[C@@H](Cc2ccc(NC(=O)c3c(Cl)cccc3Cl)cc2)C(=O)O)c1 [Example 33, N-[3-[(N'-Carboxymethyl)ureido]benzoyl]-4-[(2,6-dichlorobenzoyl)amino]-L-phenylalanine]",80 to 500
5,O=C(O)c1cccc(C(=O)Nc2cccc(C(=O)N[C@@H](Cc3ccc(NC(=O)c4c(Cl)cccc4Cl)cc3)C(=O)O)c2)c1 [Example 42],500 to 1000
6,CC(=O)CCC(=O)Nc1cccc(C(=O)N[C@@H](Cc2ccc(NC(=O)c3c(Cl)cccc3Cl)cc2)C(=O)O)c1 [Example 39],500 to 1000
7,O=C(Nc1ccc(C(=O)O)cc1)NC1(C(=O)N[C@@H](Cc2ccc(NC(=O)c3c(Cl)cccc3Cl)cc2)C(=O)O)CCCCC1 [Example 60],500 to 1000
8,"O=C(COc1ccc(C(=O)O)cc1)N[C@@H](Cc1ccc(NC(=O)c2c(Cl)cccc2Cl)cc1)C(=O)O [Example 12, N-[(4-carboxyphenoxy)acetyl]-4-[(2,6-dichlorobenzoyl)amino]-L-phenylalanine]",500 to 1000
9,O=C(O)CNC(=O)NC1(C(=O)N[C@@H](Cc2ccc(NC(=O)c3c(Cl)cccc3Cl)cc2)C(=O)O)CCCCC1 [Example 54],500 to 1000
10,"CC1(C)[C@@H](C(=O)N[C@@H](Cc2ccc(OCc3c(Cl)cccc3Cl)cc2)C(=O)O)C[C@H]1C(=O)O [Example 95, (1S-cis)-N-[(3-Carboxy-2,2-dimethylcyclobutyl)carbonyl]-4-[(2,6-dichlorophenyl)methoxy]-L-phenylalanine]",500 to 1000
11,O=C(O)CCC(=O)Nc1cccc(C(=O)N[C@@H](Cc2ccc(NC(=O)c3c(Cl)cccc3Cl)cc2)C(=O)O)c1 [Example 34],500 to 1000
